Assay results as given in ChEMBL document CHEMBL3612007, “Novel inhibitors targeting PPM1D phosphatase potently suppress cancer cell proliferation” (Bioorg Med Chem, 2015).
pIC50: −log10 of the molar value. Calls of active or inactive are those of the source. The calls are words filed in the database; no cut-off is given here.

How the values were obtained:
MCF7 [1] = experiment: Inhibition of cell proliferation of human MCF7 cells incubated for 24 hrs; type: functional, cell-based; conditions: MCF7, 24 h
MCF7 [2] = experiment: Inhibition of cell proliferation of human MCF7 cells at > 20 uM incubated for 24 hrs; type: functional, cell-based
[3] = molecular target: T1, Protein phosphatase 1A (Homo sapiens) (UniProt P35813); experiment: Inhibition of His-tagged PPM1A (unknown origin) at 2 to 10 uM using Ac-TDDE(Nle)T(P)GY(P)VAT-NH2 substrate
T1 sequence (whole entry): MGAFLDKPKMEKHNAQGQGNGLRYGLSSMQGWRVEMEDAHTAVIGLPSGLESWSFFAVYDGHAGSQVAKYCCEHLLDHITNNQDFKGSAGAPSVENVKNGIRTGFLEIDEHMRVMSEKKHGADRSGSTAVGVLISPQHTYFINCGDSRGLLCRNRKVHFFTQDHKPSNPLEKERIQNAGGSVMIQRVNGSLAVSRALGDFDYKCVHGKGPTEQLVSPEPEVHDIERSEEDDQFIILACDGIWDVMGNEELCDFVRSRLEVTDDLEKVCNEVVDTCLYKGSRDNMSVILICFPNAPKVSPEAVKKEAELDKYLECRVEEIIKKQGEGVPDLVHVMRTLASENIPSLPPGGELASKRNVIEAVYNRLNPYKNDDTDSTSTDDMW

Homo sapiens [4] = species: Homo sapiens; experiment: Inhibition of PP1 (unknown origin) at 2 to 10 uM using Ac-WGAKAKKT(P)PKAKK-NH2 substrate
Homo sapiens [5] = species: Homo sapiens; experiment: Inhibition of PP2A (unknown origin) at 2 to 10 uM using Ac-TDDE(Nle)T(P)GY(P)VAT-NH2 substrate
NCI-H1299 [6] = experiment: Inhibition of cell proliferation of human H1299 cells overexpressing HA-PPM1D at 5 to 20 incubated for 24 hrs; type: functional, cell-based
NCI-H1299 [7] = experiment: Inhibition of cell proliferation of human H1299 cells at 5 to 20 incubated for 24 hrs; type: functional, cell-based
MCF7 [8] = experiment: Induction of cell cycle arrest in human MCF7 cells assessed as increase in cell accumulation at G2/M phase incubated for 24 hrs by propidium iodide staining based flow cytometry; type: functional
MCF7 [9] = experiment: Induction of cell cycle arrest in human MCF7 cells assessed as increase in cell accumulation at subG1 phase incubated for 24 hrs by propidium iodide staining based flow cytometry; type: functional
MCF7 [10] = experiment: Induction of apoptosis in human MCF7 cells incubated for 24 hrs by Annexin-V staining based flow cytometry; type: functional, cell-based
MCF7 [11] = experiment: Effect on PPM1D protein expression in UV irradiated human MCF7 cells by Western blotting method; type: functional, cell-based
Protein phosphatase 1D = molecular target: T2, Protein phosphatase 1D (Homo sapiens, UniProt O15297); experiment: Inhibition of His-tagged PPM1D (1 to 420 residues) (unknown origin) expressed in Escherichia coli BL21 (DE3) pLysS cells using Ac-VEPPLS(P)QETFSDLW-NH2 substrate
T2 sequence (O15297 whole entry): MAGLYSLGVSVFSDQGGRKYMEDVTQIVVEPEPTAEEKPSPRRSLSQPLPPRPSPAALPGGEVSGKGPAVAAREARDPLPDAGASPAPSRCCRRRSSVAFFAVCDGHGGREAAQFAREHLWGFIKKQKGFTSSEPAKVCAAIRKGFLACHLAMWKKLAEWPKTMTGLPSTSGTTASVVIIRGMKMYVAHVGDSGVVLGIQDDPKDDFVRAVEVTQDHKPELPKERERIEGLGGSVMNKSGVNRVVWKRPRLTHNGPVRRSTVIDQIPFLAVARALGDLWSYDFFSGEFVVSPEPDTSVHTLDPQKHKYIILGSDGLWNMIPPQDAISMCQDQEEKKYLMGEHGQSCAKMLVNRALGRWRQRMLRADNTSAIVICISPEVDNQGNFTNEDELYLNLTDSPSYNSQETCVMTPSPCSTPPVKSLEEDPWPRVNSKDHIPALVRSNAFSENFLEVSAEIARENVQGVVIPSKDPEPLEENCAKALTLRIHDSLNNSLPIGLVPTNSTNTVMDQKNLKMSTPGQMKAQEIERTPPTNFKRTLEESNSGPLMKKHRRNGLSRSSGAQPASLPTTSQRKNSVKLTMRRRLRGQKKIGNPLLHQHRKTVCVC

## CC[Si](CC)(CC)O[C@@H]1CCC[C@@H]2[C@@H]1C[C@H](O[Si](C)(C)C(C)(C)C)C[C@@]2(C)C(=O)O
MCF7 [1]
  pIC50: 5.13
MCF7 [2]
  inhibition: Active
[3]
  inhibition: inactive
Homo sapiens [4]
  inhibition: inactive
Homo sapiens [5]
  inhibition: inactive
NCI-H1299 [6]
  inhibition: Active
NCI-H1299 [7]
  inhibition: inactive
MCF7 [8]
  Activity: Active
MCF7 [9]
  Activity: Active
MCF7 [10]
  Activity: Active
MCF7 [11]
  Activity: inactive

## Cc1ncc(Cl)cc1NCc1ccc(C(=O)N[C@@H](CC2CCCC2)C(=O)NC2CC2)s1
MCF7 [1]
  pIC50: 5.02
Protein phosphatase 1D
  pIC50: 7.06
NCI-H1299 [6]
  inhibition: inactive
NCI-H1299 [7]
  inhibition: inactive

## CC[Si](CC)(CC)O[C@@H]1C[C@H](C)C[C@@H]2[C@@H]1C[C@H](O[Si](C)(C)C(C)(C)C)[C@@H]1[C@](C)(CO)C[C@H](O)C[C@@]21C
MCF7 [1]
  pIC50: 4.57
Protein phosphatase 1D
  pIC50: 7.06

## CC[Si](CC)(CC)O[C@@H]1CCC[C@@H]2[C@@H]1C[C@H](O[Si](C)(C)C(C)(C)C)C[C@@]2(C)CO
MCF7 [1]
  pIC50: 4.44
